{"source": "patent US20240334934A1", "about": "“FUNGICIDE MIXTURE” (priority 2021, published 2024)", "key": {"[1]": {"tested_on": "Zymoseptoria tritici K6105", "assay": "Efficacy of mixtures of streptimidone and CtmC, liquid culture in PDB, optical density 620 nm", "format": "cell-based"}, "[2]": {"tested_on": "Gibberella zeae (Fusarium graminearum)", "assay": "microbe, parasite or virus in culture", "format": "cell-based", "conditions": "read-out: % Efficacy"}, "[3]": {"tested_on": "Microdochium nivale", "assay": "Efficacy of mixtures of streptimidone and CtmC, liquid culture in PDB, optical density 620 nm", "format": "cell-based", "conditions": "read-out: % Efficacy"}, "[4]": {"tested_on": "Botrytis cinerea", "assay": "Efficacy of purified CtmC in-vitro, microtiter plate growth inhibition", "format": "cell-based", "conditions": "rate 10 ppm; 72 hrs at 24° C.", "method": "(§1) CtmC was dissolved in DMSO (Dimethylsulfoxid) to a final concentration of 1000 ppm to create a stock solution. A second dilutions of 1:10 was made in water+0.025% Tween 20. From this second dilution 10 μl are dispensed into a 96-well plate. To each well, 90 μl of medium with fungal spores are added and mixed, resulting in final CtmC concentrations of 10 ppm. All wells containing CtmC also contain DMSO (1%) and Tween 20 (0.0025%).\n(§2) Botrytis cinerea (gray mould): Conidia of the fungus from cryogenic storage were directly mixed into nutrient broth (PDB potato dextrose broth). After placing a solution of the test compounds into a microtiter plate (96-well format) the nutrient broth containing the fungal spores was added."}, "[5]": {"tested_on": "Mycosphaerella arachidis", "assay": "Efficacy of purified CtmC in-vitro, microtiter plate growth inhibition", "format": "cell-based", "conditions": "rate 10 ppm; approximately 5-6 days at 24° C.", "method": "as §1\nMycosphaerella arachidis (Brown leaf spot of groundnut): Conidia of the fungus from cryogenic storage were directly mixed into nutrient broth (PDB potato dextrose broth). After placing a solution of the test compounds into a microtiter plate (96-well format) the nutrient broth containing the fungal spores was added. The test plates were incubated at 24° C. and the inhibition of growth was determined photometrically after approximately 5-6 days at 620 nm."}, "[6]": {"tested_on": "Zymoseptoria tritici", "assay": "Efficacy of purified CtmC in-vitro, microtiter plate growth inhibition", "format": "cell-based", "conditions": "rate 10 ppm; 72 hrs at 24° C.", "method": "as §1\nas §2, with “Zymoseptoria tritici (Septoria leaf blotch):” for “Botrytis cinerea (gray mould):”"}, "[7]": {"tested_on": "Puccinia triticina", "assay": "Leaf disc assay, wheat leaf segments, preventive", "format": "in vivo", "conditions": "rate 20 ppm, 8 dpi", "method": "A CtmC stock was generated at 1000 ppm in DMSO, then Diluted 1:50 in water+Tween 20 at 0.025% resulting in a 20 ppm solution.\nPuccinia triticina (also known as recondite, Brown rust, wheat): Wheat leaf segments are placed on agar in multiwell plates (24-well format) and sprayed with test solutions. After drying, the leaf disks are inoculated with a spore suspension of the fungus. After appropriate incubation the activity of a compound is assessed 8 dpi (days after inoculation) as preventive fungicidal activity."}, "[8]": {"tested_on": "Puccinia triticina", "assay": "Greenhouse test, wheat, preventative", "format": "in vivo", "conditions": "2 days preventative, EC50 formulation", "method": "(§3) Purified Cyclothiazomycin C (CtmC) was formulated as an EC50 formulation. The formulation was diluted in water at rates of 100 ppm and 50 ppm of CtmC. Plants were treated with 400 L/ha of the diluted product supplemented with an adjuvant to improve sticking and spreading, resulting in a treatment of 40 g/ha and 20 g/ha of CtmC, respectively.\nPuccinia triticina (also known as recondata, Brown rust on wheat). 2-week old wheat plants cv. Arina are sprayed in a spray chamber with the formulated test compound diluted in water. […] After an incubation period of 1 day at 20° C. and 95% rh, the inoculated test plants are kept at 20° C./18° C. (day/night) and 60% rh in a greenhouse. The percentage leaf area covered by disease is assessed when an appropriate level of disease appears on untreated check plants (12-14 days after application)."}, "[9]": {"tested_on": "Botrytis cinerea", "assay": "Greenhouse test, tomato, preventative", "format": "in vivo", "conditions": "2 days preventative, EC50 formulation", "method": "as §3\nBotrytis cinerea tomato/preventative (Botrytis on tomato) 4-week old tomato plants cv. Roter Gnom are treated in a spray chamber with the formulated test compound diluted in water. The test plants are inoculated by spraying them with a spore suspension two days after application. The inoculated test plants are incubated at 20° C. and 95% rh in a greenhouse and the percentage leaf area covered by disease is assessed when an appropriate level of disease appears on untreated check plants (5-6 days after application)."}, "[10]": {"tested_on": "Mycosphaerella arachidis", "assay": "Greenhouse test, peanut (groundnut), preventative", "format": "in vivo", "conditions": "1 day preventative, EC50 formulation", "method": "as §3\nMycosphaerella arachidis peanut/preventative (Brown leaf spot on groundnut) 3-week old peanut plants cv. Georgia Green are sprayed in a spray chamber with the formulated test compound diluted in water. The test plants are inoculated by spraying them with a spore suspension on their lower leaf surface one day after application. After an incubation period of 4 days under a plastic hood at 23° C. and 100% rh, the inoculated test plants are kept at 23° C./20° C. (day/night) and 70% rh in a greenhouse. The percentage leaf area covered by disease is assessed when an appropriate level of disease appears on untreated check plants (12-14 days after application)."}, "[11]": {"tested_on": "Fusarium virguliforme isolate 1", "assay": "Effect of Tween 20 on efficacy of purified CtmC, EC50", "format": "cell-based", "from_the_text": "(§4) This is contrary to our results. In order to eliminate the possibility that the fungicidal effect that we observe was down to the presence of Tween 20 we carried out some experiments like those in Example 3 but with various levels of Tween 20, including none.\n(§5) The experiment at outlined in Example 3 was repeated to evaluate the EC50 values for CtmC control on Fusarium virguliforme in presence of 4 different rates of Tween20: 0% (absence of Tween 20), 0.0025%, 0.0050% […] and 0.0100%. The plate layout was identical to Example 7, except that the plates were multiplied 4 times to accommodate the different Tween 20 concentrations in the assay plate. All other experimental conditions were kept identical. Fusarium isolates were tested at 25′000 sp/ml."}, "[12]": {"tested_on": "Fusarium virguliforme isolate 2", "assay": "Effect of Tween 20 on efficacy of purified CtmC, EC50", "format": "cell-based", "from_the_text": "as §4, §5"}, "[13]": {"tested_on": "Gibberella zeae K6934", "format": "cell-based", "conditions": "CtmC 10 ppm"}, "[14]": {"tested_on": "a variety of fungal strains", "conditions": "statement of WO2015191789, cited from earlier work"}}, "note": "Where two headings read alike, the source gives them in different places.", "data": [{"compound": "C=C1NC(=O)CNC(=O)[C@H](CCCCN)NC(=O)[C@@]2(C)NC(=O)/C(=C/C)NC(=O)[C@H]3CSC(=N3)[C@@H](CC(N)=O)CC(=O)c3ccc(nc3[C@@H](C)NC(=O)[C@@H]3CCCN3C1=O)-c1nc(cs1)C1=N[C@H](CS1)C(=O)NC(=C)c1nc(cs1)-c1nc(cs1)C1=N[C@@H](CS1)C(=O)N[C@@H](C(=O)O)CS2", "note": "[CtmC, cyclothiazomycin C]", "values": [{"measurement": "Emax at 0.0556 ppm", "setting": "[1]; K6105, read-out: % Efficacy, CtmC 0.0556 ppm alone (Streptimidone 0), lower sub-table", "value": 0, "unit": "%"}, {"measurement": "Emax at 0.0556 ppm", "setting": "[1]; K6105, read-out: % Efficacy, CtmC 0.0556 ppm alone (Streptimidone 0), upper sub-table", "value": 19, "unit": "%"}, {"measurement": "Emax at 0.1667 ppm", "setting": "[1]; K6105, read-out: % Efficacy, CtmC 0.1667 ppm alone (Streptimidone 0), lower sub-table", "value": 23, "unit": "%"}, {"measurement": "Emax at 0.1667 ppm", "setting": "[1]; K6105, read-out: % Efficacy, CtmC 0.1667 ppm alone (Streptimidone 0), upper sub-table", "value": 61, "unit": "%"}, {"measurement": "Emax at 0.5 ppm", "setting": "[1]; K6105, read-out: % Efficacy, CtmC 0.5000 ppm alone (Streptimidone 0), lower sub-table", "value": 47, "unit": "%"}, {"measurement": "Emax at 0.5 ppm", "setting": "[1]; K6105, read-out: % Efficacy, CtmC 0.5000 ppm alone (Streptimidone 0), upper sub-table", "value": 78, "unit": "%"}, {"measurement": "Emax at 20 ppm", "setting": "[2]", "value": 37, "unit": "%"}, {"measurement": "Emax at 0.0333 ppm", "setting": "[3]", "value": 19, "unit": "%"}, {"measurement": "Emax at 0.1 ppm", "setting": "[3]", "value": 42, "unit": "%"}, {"measurement": "control of fungal growth (%)", "setting": "[4]", "value": 90, "unit": "%"}, {"measurement": "control of fungal growth (%)", "setting": "[5]", "value": 100, "unit": "%"}, {"measurement": "control of fungal growth (%)", "setting": "[6]", "value": 90, "unit": "%"}, {"measurement": "control of fungal growth (%)", "setting": "[7]", "value": 90, "unit": "%"}, {"measurement": "efficacy 20 g/ha (%)", "setting": "[8]; 20 g/ha", "value": 81, "unit": "%"}, {"measurement": "efficacy 40 g/ha (%)", "setting": "[8]; 40 g/ha", "value": 81, "unit": "%"}, {"measurement": "efficacy 20 g/ha (%)", "setting": "[9]; 20 g/ha", "value": 30, "unit": "%"}, {"measurement": "efficacy 40 g/ha (%)", "setting": "[9]; 40 g/ha", "value": 47, "unit": "%"}, {"measurement": "efficacy 20 g/ha (%)", "setting": "[10]; 20 g/ha", "value": 56, "unit": "%"}, {"measurement": "efficacy 40 g/ha (%)", "setting": "[10]; 40 g/ha", "value": 65, "unit": "%"}, {"measurement": "EC50 (ppm)", "setting": "[11]; Tween 20 0%", "value": 1.422, "unit": "ppm"}, {"measurement": "EC50 (ppm)", "setting": "[11]; Tween 20 0.0025%", "value": 1.053, "unit": "ppm"}, {"measurement": "EC50 (ppm)", "setting": "[11]; Tween 20 0.0050%", "value": 0.8103, "unit": "ppm"}, {"measurement": "EC50 (ppm)", "setting": "[11]; Tween 20 0.0100%", "value": 1.436, "unit": "ppm"}, {"measurement": "EC50 (ppm)", "setting": "[12]; Tween 20 0%", "value": 1.098, "unit": "ppm"}, {"measurement": "EC50 (ppm)", "setting": "[12]; Tween 20 0.0025%", "value": 0.889, "unit": "ppm"}, {"measurement": "EC50 (ppm)", "setting": "[12]; Tween 20 0.0050%", "value": 0.7844, "unit": "ppm"}, {"measurement": "EC50 (ppm)", "setting": "[12]; Tween 20 0.0100%", "value": 1.035, "unit": "ppm"}, {"measurement": "efficacy (%)", "setting": "[13]", "value": 48, "unit": "%"}, {"measurement": "optical density at 620 nm", "setting": "[13]; blank 0.052, untreated 0.641", "value": 0.361}, {"measurement": "growth inhibitory action toward a variety of fungal strains", "setting": "[14]; listed as Cyclothiazomycin C", "value": "no fungal inhibitory action"}, {"measurement": "growth inhibitory action toward a variety of fungal strains", "setting": "[14]; listed as cyclothiazomycin C", "value": "none was observed"}]}]}
